# Test results: patent US10316017B2, “COT modulators and methods of use thereof” (Gilead Sciences, Inc., priority 2015, dated 2019)
# Legend:
# [1] = test system: TNFα production in LPS-stimulated human monocytes; test: Cot Monocyte TNFα Cell Based Assay; details: Homo sapiens, Monocyte, TNFα in LPS-stimulated human monocytes; read-out: EC50 TNF
# Description: Example 60: Cot Monocyte TNFα Cell Based Assay
# The cell suspension was then plated at a density of 5,000 cells/well onto black 384 well Greiner clear bottom plates. Plates were pre-spotted with test compounds and serially diluted in DMSO where 200 nL/well were delivered using the Echo 550 acoustic liquid dispenser (Labcyte®) for a final DMSO concentration of 0.5%. Plated cells were treated with compound for 1 hour at 37° C. Cells were then stimulated with 50 pg/ml of LPS (Sigma) excluding outside columns of plate used for unstimulated cell control wells. Cells were incubated for an additional 4 hours at 37° C. Cells were then spun out of the media and 5 ul of sample were taken and analyzed for total TNFα content using the TR-FRET Human TNFα detection system (CisBio). This system utilizes two labeled antibodies (cryptate and XL665) that bind to two different epitopes of the TNFα molecule and produce FRET signal proportional to the concentration of TNFα in the sample. Detection antibodies are mixed 50:50 and 5 μL were dispensed into each well. Plates were covered with clear seals and incubated at room temp overnight. […] Percent of control was calculated as follows: % Control=100×(RatioSample−Ratio0% stimulation)/(Ratio100% Stimulation−Ratio0% Stimulation) where unstimulated cells (0% stimulation) were the negative control and stimulated cells (100% stimulation) were used as the positive control.
# [2] = molecular target: T1, human Cot catalytic domain (30-397 amino acids) (Homo sapiens, UniProt P41279); test: High Throughput Cot Biochemical Assay (KinEASE TR-FRET); details: Cot KinEASE TR-FRET (HTRF) biochemical assay, 400 μM ATP; read-out: IC50 HTRF
# T1 construct: Purified recombinant human Cot catalytic domain (30-397 amino acids) was purchased from Cama Biosciences; purchased Cama Biosciences (so in the source)
# T1 sequence (P41279 30-397): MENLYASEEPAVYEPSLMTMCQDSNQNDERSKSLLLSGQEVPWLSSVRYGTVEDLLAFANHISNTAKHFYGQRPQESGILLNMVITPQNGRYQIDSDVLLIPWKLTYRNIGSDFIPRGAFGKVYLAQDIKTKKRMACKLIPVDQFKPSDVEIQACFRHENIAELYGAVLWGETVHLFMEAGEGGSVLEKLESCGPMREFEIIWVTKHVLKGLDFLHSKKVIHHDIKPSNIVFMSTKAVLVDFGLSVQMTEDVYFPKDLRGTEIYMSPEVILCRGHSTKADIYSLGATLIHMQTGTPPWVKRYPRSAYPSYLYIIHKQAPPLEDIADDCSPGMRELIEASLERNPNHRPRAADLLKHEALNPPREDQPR
# Summary of the method: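 Phosphorylation of 1 μM XL665-STK3 peptide by 5 nM Cot catalytic domain was measured by time-resolved FRET using a europium […] antibody. ATP was 400 μM; buffer was 10 mM MOPS pH 7.0 with Mg2+ and DTT.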
SMILES,EC50 [1],IC50 [2]
"[2H]C(Nc1cc(Cl)c2ncc(C#N)c(NC3C4CCCC43)c2c1)(c1ccc(F)cc1)c1cn(C2CC2)nn1 (stereo in doubt) [Example 242, 4-(bicyclo[3.1.0]hexan-6-ylamino)-8-chloro-6-(((S)-(1-cyclopropyl-1H-1,2,3-triazol-4-yl)(4-fluorophenyl)methyl-d)amino)quinoline-3-carbonitrile]",270 nM,8 nM
"[2H]C(Nc1cc(Cl)c2ncc(C#N)c(NC3CCCC4CC43)c2c1)(c1ccc(F)cc1)c1cn(C2CC2)nn1 (stereo in doubt) [Example 250, 4-(bicyclo[4.1.0]heptan-2-ylamino)-8-chloro-6-(((S)-(1-cyclopropyl-1H-1,2,3-triazol-4-yl)(4-fluorophenyl)methyl-d)amino)quinoline-3-carbonitrile]",993 nM,147 nM
"[2H]C(Nc1cc(Cl)c2ncc(C#N)c(NC3CCC4CC43)c2c1)(c1ccc(F)cc1)c1cn(C2CC2)nn1 (stereo in doubt) [Example 251, 4-(bicyclo[3.1.0]hexan-2-ylamino)-8-chloro-6-(((S)-(1-cyclopropyl-1H-1,2,3-triazol-4-yl)(4-fluorophenyl)methyl-d)amino)quinoline-3-carbonitrile]",1280 nM,105 nM
"[2H]C(Nc1cc(Cl)c2ncc(C#N)c(NC3CC4CCCC(C4)C3)c2c1)(c1ccc(F)cc1)c1cn(C2CC2)nn1 (stereo in doubt) [Example 278, 4-(((1R,5S)-bicyclo[3.3.1]nonan-3-yl)amino)-8-chloro-6-(((S)-(1-cyclopropyl-1H-1,2,3-triazol-4-yl)(4-fluorophenyl)methyl-d)amino)quinoline-3-carbonitrile]",> 10000 nM,222 nM
"[2H]C(Nc1cc(F)c2ncc(C#N)c(NC(CC#N)c3ccccc3)c2c1)(c1ccc(F)cc1)c1cn(C2CC2)nn1 (stereo in doubt) [Example 286, 4-((2-cyano-1-phenylethyl)amino)-6-(((1-cyclopropyl-1H-1,2,3-triazol-4-yl)(4-fluorophenyl)methyl-d)amino)-8-fluoroquinoline-3-carbonitrile]",127 nM,7 nM
"[2H]C(Nc1cc(Cl)c2ncc(C#N)c(N[C@H]3CCCCC3(C)C)c2c1)(c1ccc(F)cc1)c1cn(C2CC2)nn1 (stereo in doubt) [Example 319, 8-chloro-6-(((S)-(1-cyclopropyl-1H-1,2,3-triazol-4-yl)(4-fluorophenyl)methyl-d)amino)-4-(((S)-2,2-dimethylcyclohexyl)amino) quinoline-3-carbonitrile]",4480 nM,372 nM
"[2H]C(Nc1cc(Cl)c2ncc(C#N)c(NC3C(C)CCCC3C)c2c1)(c1ccc(F)cc1)c1cn(C2CC2)nn1 (stereo in doubt) [Example 320, 8-chloro-6-(((S)(1-cyclopropyl-1H-1,2,3-triazol-4-yl)(4-fluorophenyl)methyl-d)amino)-4-((2,6-dimethylcyclohexyl)amino) quinoline-3-carbonitrile]",6430 nM,1150 nM
[2H][C@](Nc1cc(Cl)c2ncc(C#N)c(N[C@H](CC)c3ccccc3)c2c1)(c1ccc(F)cc1)c1cn(C2CC2)nn1 [Compound 2],151 nM,6 nM
Cc1ccccc1[C@H](Nc1cc(Cl)c2ncc(C#N)c(NCC(C)(C)C)c2c1)c1cn(C2CC2)nn1 [Compound 3],246 nM,7 nM
[2H]C(Nc1cc(Cl)c2ncc(C#N)c(NCC(C)(C)C)c2c1)(c1cn(CC(N)=O)nn1)c1ccccc1Cl (stereo not shown) [Compound 4],280 nM,6 nM
N#Cc1cnc2c(Cl)cc(NC(c3ccc(F)cc3)c3ccon3)cc2c1Nc1ccc(F)c(Cl)c1 (stereo not shown) [Compound 7],1520 nM,187 nM
CC(=O)N(C)c1cccc([C@H](Nc2cc(C#N)c3ncc(C#N)c(NCC(C)(C)C)c3c2)c2cn(C3CC3)nn2)c1 [Compound 9],172 nM,2 nM
[2H][C@](Nc1cc(C(C)=O)c2ncc(C#N)c(NCC(C)(C)C)c2c1)(c1ccc(F)cc1)c1cn(C2CC2)nn1 [Compound 11],98 nM,5 nM
[2H][C@](Nc1cc(-c2cncnc2)c2ncc(C#N)c(NCC(C)(C)C)c2c1)(c1ccc(F)cc1)c1cn(C2CC2)nn1 [Compound 12],205 nM,20 nM
"[2H][C@](Nc1cc(Br)c2ncc(C#N)c(NCC(C)(C)C)c2c1)(c1ccc(F)cc1)c1nnn(C2CC2)c1SC [Compound 13, (S)-8-bromo-6-(((1-cyclopropyl-5-(methylthio)-1H-1,2,3-triazol-4-yl)(4-fluorophenyl)methyl-d)amino)-4-(neopentylamino) quinoline-3-carbonitrile]",221 nM,71 nM
[2H][C@@](Nc1cc(C(C)=O)c2ncc(C#N)c(NCC(C)(C)C)c2c1)(c1cn(C2CC2)nn1)c1ccccc1Cl [Compound 14],298 nM,13 nM
[2H][C@](Nc1cc(Cl)c2ncc(C#N)c(N[C@H](CC)c3ccccc3)c2c1)(c1cccc(C#N)c1)c1c[nH]nn1 [Compound 15],134 nM,4 nM
[2H]C(Nc1cc(Cl)c2ncc(C#N)c(NCC(C)(C)C)c2c1)(c1cn(C(F)(F)CO)nn1)c1ccccc1Cl (stereo not shown) [Compound 26],380 nM,13 nM

# Results, then the molecule that gave them:
EC50 [1],IC50 [2],SMILES
143 nM,6 nM,[2H][C@](Nc1cc(Cl)c2ncc(C#N)c(NCC(C)(C)C)c2c1)(c1ccc(F)cc1)c1cn(C2CC2)nn1 [Compound 1]
153 nM,2 nM,CCN1CCC(n2cc([C@@H](Nc3cc(Cl)c4ncc(C#N)c(Nc5ccc(F)c(Cl)c5)c4c3)c3ccc(F)cc3)nn2)CC1 [Compound 5]
571 nM,33 nM,"Cn1cc(C(Nc2cc(Br)c3ncc(C#N)c(Nc4ccc(F)c(Cl)c4)c3c2)c2ccc(F)cc2)nn1 (stereo not shown) [Compound 8, 8-bromo-4-((3-chloro-4-fluorophenyl)amino)-6-(((4-fluorophenyl) (1-methyl-1H-1,2,3-triazol-4-yl)methyl)amino) quinoline-3-carbonitrile]"
71 nM,4 nM,CC(C)(C)N1CCC(n2cc([C@@H](Nc3cc(Cl)c4ncc(C#N)c(Nc5cnc(F)c(Cl)c5)c4c3)c3ccccc3)nn2)CC1 [Compound 10]
> 10000 nM,1400 nM,"CC(C)(C)N1CCC(n2cc([C@@H](Nc3cc(Cl)c4ncc(C#N)c(NC(=O)c5ccccc5)c4c3)c3ccc(F)cc3)nn2)CC1 [Compound 16, (S)-N-(6-(((1-(1-(tert-butyl)piperidin-4-yl)-1H-1,2,3-triazol-4-yl)(4-fluorophenyl)methyl)amino)-8-chloro-3-cyanoquinolin-4-yl)benzamide]"
260 nM,4 nM,"CC(C)(C)N1CCC(n2cc([C@@H](Nc3cc(Cl)c4ncc(C#N)c(Nc5ccc(F)c(Cl)c5)c4c3)c3cccc(CO)c3)nn2)CC1 [Compound 17, (S)-6-(((1-(1-(tert-butyl)piperidin-4-yl)-1H-1,2,3-triazol-4-yl)(3-(hydroxymethyl)phenyl)methyl)amino)-8-chloro-4-((3-chloro-4-fluorophenyl)amino) quinoline-3-carbonitrile]"
1220 nM,7 nM,CN(C)Cc1cccc([C@H](Nc2cc(Cl)c3ncc(C#N)c(Nc4ccc(F)c(Cl)c4)c3c2)c2cn(C3CCN(C(C)(C)C)CC3)nn2)c1 [Compound 18]
18000 nM,5 nM,CC(C)(C)N1CCC(n2cc([C@@H](Nc3cc(Cl)c4ncc(C#N)c(Nc5ccc(F)c(Cl)c5)c4c3)c3cccc(C(=O)O)c3)nn2)CC1 [Compound 19]
41 nM,1 nM,CN(C)C(=O)c1cccc([C@H](Nc2cc(Cl)c3ncc(C#N)c(Nc4ccc(F)c(Cl)c4)c3c2)c2cn(C3CCN(C(C)(C)C)CC3)nn2)c1 [Compound 20]
234 nM,5 nM,CC(=O)c1cccc([C@H](Nc2cc(Cl)c3ncc(C#N)c(Nc4ccc(F)c(Cl)c4)c3c2)c2cn(C3CCN(C(C)(C)C)CC3)nn2)c1 [Compound 21]
158 nM,2 nM,CC(O)c1cccc([C@H](Nc2cc(Cl)c3ncc(C#N)c(Nc4ccc(F)c(Cl)c4)c3c2)c2cn(C3CCN(C(C)(C)C)CC3)nn2)c1 (stereo partly shown) [Compound 22]
95 nM,2 nM,CC(C)(C)N1CCC(n2cc([C@@H](Nc3cc(Cl)c4ncc(C#N)c(Nc5ccc(F)c(Cl)c5)c4c3)c3cccc(-c4ncco4)c3)nn2)CC1 [Compound 23]
120 nM,6 nM,CC(C)(C)N1CCC(n2cc([C@@H](Nc3cc(Cl)c4ncc(C#N)c(Nc5ccc(F)c(Cl)c5)c4c3)c3cccc(N)c3)nn2)CC1 [Compound 24]
975 nM,4 nM,CC(C)(C)N1CCC(n2cc([C@@H](Nc3cc(Cl)c4ncc(C#N)c(Nc5ccc(F)c(Cl)c5)c4c3)c3cccc(NS(C)(=O)=O)c3)nn2)CC1 [Compound 25]
